Source: ChEMBL document CHEMBL3853262 (Medchemcomm, 2016)
Activity calls are given as the source filed them. No cut-off for these calls is given here.

Tests used:
NTERA-2-cl-D1 [1] = assay: Induction of DNA fragmentation in human NT2/D1 cells at 25 uM after 6 to 24 hrs by propidium iodide/RNase staining-based capillary cytometric method; assay type: functional, cell-based
NTERA-2-cl-D1 [2] = assay: Proapoptotic activity in human NT2/D1 cells assessed as necrotic cells at 25 uM after 1 hr by annexin V/propidium iodide staining-based capillary cytometric method relative to control; assay type: functional
THP-1 [3] = assay: Proapoptotic activity in human THP1 cells assessed as necrotic cells at 25 uM after 7 hrs by annexin V/propidium iodide staining-based capillary cytometric method relative to control; assay type: functional
THP-1 [4] = assay: Induction of apoptosis in human THP1 cells assessed as early apoptotic cells at 25 uM after 4 hrs by annexin V/propidium iodide staining-based capillary cytometric method (reference value: 3.22%); assay type: functional
NTERA-2-cl-D1 [5] = assay: Proapoptotic activity in human NT2/D1 cells by annexin V-FITC/propidium iodide staining-based capillary cytometric method; assay type: functional, cell-based
NTERA-2-cl-D1 [6] = assay: Proapoptotic activity in human NT2/D1 cells assessed as early apoptotic cells at 25 uM after 5 hrs by annexin V/propidium iodide staining-based capillary cytometric method relative to control; assay type: functional
NTERA-2-cl-D1 [7] = assay: Proapoptotic activity in human NT2/D1 cells assessed as late apoptotic cells at 25 uM after 7 hrs by annexin V/propidium iodide staining-based capillary cytometric method relative to control; assay type: functional
NTERA-2-cl-D1 [8] = assay: Proapoptotic activity in human NT2/D1 cells assessed as early apoptotic cells at 25 uM after 1 hr by annexin V/propidium iodide staining-based capillary cytometric method relative to control; assay type: functional
THP-1 [9] = assay: Proapoptotic activity in human THP1 cells assessed as late apoptotic cells at 25 uM after 7 hrs by annexin V/propidium iodide staining-based capillary cytometric method relative to control; assay type: functional
NTERA-2-cl-D1 [10] = assay: Proapoptotic activity in human NT2/D1 cells assessed as viable cells at 25 uM after 1 hr by annexin V/propidium iodide staining-based capillary cytometric method relative to control; assay type: functional; settings: NTERA-2-cl-D1, 1 h, read-out: Activity
NTERA-2-cl-D1 [11] = assay: Proapoptotic activity in human NT2/D1 cells assessed as early apoptotic cells at 25 uM after 7 hrs by annexin V/propidium iodide staining-based capillary cytometric method relative to control; assay type: functional
NTERA-2-cl-D1 [12] = assay: Induction of apoptosis in human NT2/D1 cells assessed as early apoptotic cells at 25 uM after 4 hrs in presence of pan caspase inhibitor Z-VAD-fmk by annexin V/propidium iodide staining-based capillary cytometric method (reference value: 3.40%); assay type: functional
THP-1 [13] = assay: Proapoptotic activity in human THP1 cells assessed as viable cells at 25 uM after 5 hrs by annexin V/propidium iodide staining-based capillary cytometric method relative to control; assay type: functional; settings: THP-1, 5 h, read-out: Activity
NTERA-2-cl-D1 [14] = assay: Induction of apoptosis in human NT2/D1 cells assessed as early apoptotic cells at 25 uM after 4 hrs by annexin V/propidium iodide staining-based capillary cytometric method (reference value: 3.40%); assay type: functional
NTERA-2-cl-D1 [15] = assay: Induction of apoptosis in human NT2/D1 cells assessed as late apoptotic cells at 25 uM after 4 hrs by annexin V/propidium iodide staining-based capillary cytometric method (reference value: 0.70%); assay type: functional
THP-1 [16] = assay: Proapoptotic activity in human THP1 cells assessed as viable cells at 25 uM after 3 hrs by annexin V/propidium iodide staining-based capillary cytometric method relative to control; assay type: functional; settings: THP-1, 3 h, read-out: Activity
THP-1 [17] = assay: Induction of apoptosis in human THP1 cells assessed as late necrotic cells at 25 uM after 4 hrs by annexin V/propidium iodide staining-based capillary cytometric method (reference value: 0.04%); assay type: functional
THP-1 [18] = assay: Proapoptotic activity in human THP1 cells assessed as early apoptotic cells at 25 uM after 1 hr by annexin V/propidium iodide staining-based capillary cytometric method relative to control; assay type: functional
THP-1 [19] = assay: Induction of apoptosis in human THP1 cells assessed as […] cells at 25 uM after 4 hrs in presence of pan caspase inhibitor Z-VAD-fmk by annexin V/propidium iodide staining-based capillary cytometric method (reference value: 96.40%); assay type: functional
THP-1 [20] = assay: Induction of apoptosis in human THP1 cells assessed as early apoptotic cells at 25 uM after 4 hrs in presence of pan caspase inhibitor Z-VAD-fmk by annexin V/propidium iodide staining-based capillary cytometric method (reference value: 3.22%); assay type: functional
NTERA-2-cl-D1 [21] = assay: Induction of apoptosis in human NT2/D1 cells assessed as viable cells at 25 uM after 4 hrs in presence of pan caspase inhibitor Z-VAD-fmk by annexin V/propidium iodide staining-based capillary cytometric method (reference value: 95.80%); assay type: functional; settings: NTERA-2-cl-D1, 4 h, read-out: Activity
THP-1 [22] = assay: Proapoptotic activity in human THP1 cells assessed as viable cells at 25 uM after 7 hrs by annexin V/propidium iodide staining-based capillary cytometric method relative to control; assay type: functional; settings: THP-1, 7 h, read-out: Activity
THP-1 [23] = assay: Proapoptotic activity in human THP1 cells assessed as early apoptotic cells at 25 uM after 7 hrs by annexin V/propidium iodide staining-based capillary cytometric method relative to control; assay type: functional
NTERA-2-cl-D1 [24] = assay: Proapoptotic activity in human NT2/D1 cells assessed as early apoptotic cells at 25 uM after 3 hrs by annexin V/propidium iodide staining-based capillary cytometric method relative to control; assay type: functional
NTERA-2-cl-D1 [25] = assay: Induction of apoptosis in human NT2/D1 cells assessed as necrotic cells at 25 uM after 4 hrs in presence of pan caspase inhibitor Z-VAD-fmk by annexin V/propidium iodide staining-based capillary cytometric method (reference value: 0.10%); assay type: functional
NTERA-2-cl-D1 [26] = assay: Proapoptotic activity in human NT2/D1 cells assessed as necrotic cells at 25 uM after 3 hrs by annexin V/propidium iodide staining-based capillary cytometric method relative to control; assay type: functional
THP-1 [27] = assay: Proapoptotic activity in human THP1 cells assessed as late apoptotic cells at 25 uM after 3 hrs by annexin V/propidium iodide staining-based capillary cytometric method relative to control; assay type: functional
BJ = assay: Proapoptotic activity in human BJ cells by annexin V-FITC/propidium iodide staining-based capillary cytometric method; assay type: functional, cell-based
THP-1 [28] = assay: Induction of apoptosis in human THP1 cells assessed as late apoptotic cells at 25 uM after 4 hrs in presence of pan caspase inhibitor Z-VAD-fmk by annexin V/propidium iodide staining-based capillary cytometric method (reference value: 0.34%); assay type: functional

CNc1nc(-c2cccc(NC(=O)c3cc4ccccc4[nH]3)c2)c[nH]1.Cl
Activity (NTERA-2-cl-D1 [1]): Active
Activity (NTERA-2-cl-D1 [2]): 0.11%
Activity (THP-1 [3]): 0.2%
Activity (THP-1 [4]): 4.96%
EC50 (NTERA-2-cl-D1 [5]): 11 µM
Activity (NTERA-2-cl-D1 [6]): 46.36%
Activity (NTERA-2-cl-D1 [7]): 13.18%
Activity (NTERA-2-cl-D1 [8]): 8.6%
Activity (THP-1 [9]): 45.9%
viability at 25 µM (NTERA-2-cl-D1 [10]): 87.7%
Activity (NTERA-2-cl-D1 [11]): 55.66%
Activity (NTERA-2-cl-D1 [12]): 8.15%
viability at 25 µM (THP-1 [13]): 28.6%
Activity (NTERA-2-cl-D1 [14]): 23.88%
Activity (NTERA-2-cl-D1 [15]): 5.16%
viability at 25 µM (THP-1 [16]): 77.3%
Activity (THP-1 [17]): 0.26%
Activity (THP-1 [18]): 1.45%
Activity (THP-1 [19]): 18.04%
Activity (THP-1 [20]): 64.66%
viability at 25 µM (NTERA-2-cl-D1 [21]): 88.8%
viability at 25 µM (THP-1 [22]): 17.8%
Activity (THP-1 [23]): 36.14%
Activity (NTERA-2-cl-D1 [24]): 22.77%
Activity (NTERA-2-cl-D1 [25]): 0.17%
Activity (NTERA-2-cl-D1 [26]): 0.11%
Activity (THP-1 [27]): 16.53%
EC50 (BJ): 21 µM
Activity (THP-1 [28]): 17.2%
